According to patent US5869023A, “Composition for MRI comprising both a positive and a negative contrast agent” (Nycomed Imaging AS, priority 1993, dated 1999):
“Also recorded” adds a separate entry of the source.

Tests used:
[1] = tested on: normal and infarcted myocardium; settings: rat, in vivo; for concentration ratio, reperfused infarcted vs normal myocardium: 15 min
Protocol: Thirty seven Sprague Dawley rats (200-400 gm) were anaesthetized by an intraperitoneal injection of sodium pentobarbital (50 mg/kg body weight). After tracheostomy, animals were ventilated using a small animal respirator. The heart was exposed following a left thoracotomy through the 4th intercostal space and a surgical suture was used to ligate the anterior branch of the left coronary artery near its origin beneath the left atrial appendage using a snare ligature. The presence of occlusion was visually confirmed by noting the development of myocardial cyanosis. After 1 hour occlusion, reperfusion was initiated by loosening the snare ligature. A catheter was placed into a femoral vein to inject contrast media. All animals which received contrast agent were administered doses at 45 minutes of reflow. After 1 hour reperfusion, each heart was excised and rinsed in 0.9% saline, patted dry with gauze, and a cotton swab was inserted into the left ventricular cavity to expand the chamber. Each heart was wrapped in clear plastic wrap to minimise dehydration during imaging.
To group 1 rats (n=9) were administered 0.2 mmol/kg of GdDTPA-BMA immediately followed by 1.0 mmol/kg of DyDTPA-BMA. Group 2 (n=7) received no contrast agents. Two spin-echo images were obtained from the midventricle of each heart, a T1-weighted image with TR/TE=300/20 and NEX=4, and T2-weighted image with TR/TE=3000/60 and NEX=2. After imaging, each heart was sliced at the midventricular level and soaked in a 2% solution of TTC at 37° C. for 15 minutes to define myocardial infarction.
Samples of normal and infarcted myocardium were retained for analysis of Gd and Dy content by means of ICP-MS.

[2] = tested on: infarcted and non-ischemic myocardium; experiment: Microdialysis kinetics of Gd and Dy in extracellular space of pig myocardium (Example 5); settings: for concentration course in dialysate / duration of plateau in dialysate: infarcted myocardium; for concentration in dialysate after early peak: non-ischemic myocardium
Protocol: (§1) Myocardial infarction was induced in 5 anaesthetized pigs of either sex (weight 25-30 kg) by ligating a diagonal branch of the left anterior descending artery (LAD), at thoracotomy. Microdialysate probes were inserted in ischemic and non-ischemic myocardium. The pigs were sacrificed 2 hours after administration of contrast media. 4 hour post occlusion Gd-DTPA-BMA (0.3 mmol/kg) and Dy-DTPA-BMA (1.0 mmol/kg) were simultaneously administered in vivo with an injection time of one minute. The total occlusion time was thus 6 hours.
(§2) The microdialysate was collected every 10 minutes and measured for gadolinium and dysprosium using inductively coupled plasma atomic emission spectrometry (ICP-AES). The microdialysis equipment consisted of a CMA®/20 microdialysis probe with a 10 mm flexible membrane and a diameter of 0.5 mm (CMA AB, Stockholm, Sweden). […] The probe was perfused with a Krebs-Ringer phosphate buffer (pH 7.4) at a speed of 2 μl/min and a dead space, in the system, of 10 μl. […] One probe was inserted into the central part of the ischemic area and another probe was placed in non-ischemic myocardium in the lateral wall using the Seldinger technique to minimize mechanical injury to myocardium and probe membrane. A CMA® microdialysis pump (CMA 100) was used with two syringes to perfuse the probes.
(§3) In addition, gadolinium and dysprosium were determined in dialysates from five pigs by ICP-AES. Twenty μl portions were sampled in plastic tubes and kept frozen until analysis. The samples were diluted to 5.02 ml with ultra-pure water. To enhance the sensitivity of measurements, an ultrasonic nebulizer was used instead of the pneumatic one. The limit of detection for the method is about 2 μg/l for both gadolinium and dysprosium in the measuring solution. This means that about 3 μmol/l can be detected in the dialysates.

[3] = tested on: infarcted and nonischemic myocardium; settings: cited from earlier work
myocardial infarction = settings: first positive, second negative agent, sequential; cited from earlier work
[4] = tested on: infarcted and nonischemic myocardium; experiment: Ex vivo MR imaging of pig hearts, myocardial infarction model (Example 4); format: in vivo; settings: Dy DTPA-BMA 1.0 mmol/kg plus Gd DTPA-BMA 0.3 mmol/kg
Protocol: A control group received no contrast agent.
Following sacrifice, the hearts were extirpated and rinsed in isotonic saline to remove remaining blood. The hearts were examined ex vivo at ambient temperature in the MR equipment and then cut into thin transverse slices and soaked for about 20 minutes in a 1% aqueous solution of triphenyltetrazolium chloride (TTC) at 37° C. The slices were then visually inspected for unstained areas corresponding to infarction.
MR examination was performed in a superconductive whole body equipment (Siemens Magnetom) operating at 0.5 T. The hearts were investigated with saggital and transverse multi-slice spin-echo images with TR/TE of 500/30 (two excitations), 1500/30,70 and 1500/30,120 (single excitations) using a saddle-shaped coil with a diameter of 13 cm. The following parameters were used: Slice thickness 7 mm. Interslice gap 20%. Acquisition matrix 256×256 giving a resolution of 0.7×0.7 mm.
In the transverse images regions of interest (ROI's) were placed in infarcted and nonischemic myocardium, in a corn oil phantom and in front of the heart (noise). The mean signal intensity (SI) was measured in each ROI.
In addition, the SD was measured in the noise. […]

[5] = tested on: normal and reperfused infarcted myocardium; experiment: MR imaging and T2/T2* relaxation of rat hearts after single agents, protocol 2 (Example 6); format: in vivo, Sprague Dawley rats; settings: for T2, infarct / T2, normal myocardium: four-echo T2-weighted, TR=4000 ms; for GRE signal intensity, infarct / GRE signal intensity, normal myocardium: gradient recalled echo images, Dy 1.0 mmol/kg n=11 or Gd 0.2 mmol/kg n=7; for T2*, infarct / T2*, normal myocardium: gradient-recalled images, TE=10, 15, 20 and 30 ms; for SE T1 signal intensity, infarct / SE T1 signal intensity, normal myocardium: spin echo T1 weighted, TR/TE=300/20 ms; for SE T2 signal intensity, infarct / SE T2 signal intensity, normal myocardium: spin echo T2 weighted, TR/TE=4000/80 ms
From the text: Images were acquired at room temprature using a GE CSI 2.0 T system. Each heart was positioned with its long axis parallel to the main magnetic field such that axial images would present short axis views of the heart. All images were obtained using a slice thickness of 2 mm, FOV of 30 mm, and a raw data matrix of 128×256 interpolated to 256×256 during reconstruction. TR/TE settings used for spin echo images are indicated below. Gradient echo images were obtained using a TR of 600 ms, with the radio frequency pulse power set very low such that no signal saturation was evident following multiple pulses and images would contain no T1 weighting.
Group 3 (n=11) received 1.0 mmol/kg DyDTPA-BMA, group 4 (n=7) received 0.2 mmol/kg of GdDTPA-BMA and group 5 (n=7) received no contrast agents. The imaging protocol for each heart consisted of spin echo T1-weighted (TR/TE=300/20 ms, NEX=4) and T2-weighted (TR/TE=4000/80 ms; NEX=2), a set of four-echo T2-weighted images (TR=4000 ms, TE=20, 40, 60 and 80 ms, NEX=2) for estimation of regional T2 values, and a set of gradient-recalled images (TE=10, 15, 20 and 30 ms, NEX=4) for estimation of region T2* values. TTC staining of the heart was performed to verify the presence of infarction.
Signal intensities were measured from ROIs selected over infarcted and uninfarcted myocardium. The same ROIs were applied to all images obained from each heart.
A series of gradient recalled and spin echo MR images were obtained to resolve the effects of GdDTPA-BMA on T2-weighted images and DyDTPA-BMA on T1-weighted images and also to more thoroughly characterize the differences in contrast media-induced T2 and T2* enhancement between infarcted and normal myocardium. Table III summarises the observed alterations in regional signal intensity and relaxation rates following administration of either GdDTPA-BMA or DyDTPA-BMA.

[6] = tested on: infarcted and non-ischemic myocardium; experiment: MR imaging of excised pig hearts, double contrast (Example 5); format: in vivo
Protocol: The total occlusion time was thus 6 hours.
Following sacrifice, the hearts were extirpated and rinsed in isotonic saline to remove remaining blood. The hearts were examined ex vivo at ambient temperature in the MR equipment and then cut into approximately 8 mm thick transverse slices and soaked for 10-20 minutes in a 1% aqueous solution of triphenyltetrazolium chloride (TTC) at 37° C. TTC stains non-ischemic myocardium brick red. The slices were inspected visually for unstained areas of infarction.
MR images were obtained in an identical manner to that described in Example 4.
In the transverse images, three ROI's were placed in infarcted myocardium. Four ROI's were placed in non-ischemic myocardium, two in the anterior wall and two in the posterior wall of the left ventricle. The mean signal intensity (S) was measured in each ROI. One ROI was placed anterior to the heart in an area free from visible artefacts, in order to measure the standard deviation (SD) of the background signal. These measurements were used to calculate the contrast (C) and contrast-to-noise (C/N) ratios between infarcted (inf) and non-ischemic (nonisch) myocardium using the formulae defined in Example 4.
In each heart, non-ischemic myocardium and infarction were represented by a mean value from measurements in two slices.

[7] = tested on: infarcted and non-ischemic myocardium; settings: pig, in vivo; for time of early peak in dialysate: iv
Protocol: as §1, §2, §3

Human blood samples = experiment: In vitro MR imaging of contrast agent doped human blood samples, viable vs freeze-injured cells (Example 2); format: cell-based
Protocol: Human blood samples with different hematocrit readings (Ht) of 27%, 45% and 69% were prepared to provide sample models for different levels of compartmentalization between intracellular and extracellular fluids. To initiate cellular level injury, samples with these Ht readings were frozen to effect cell membrane destruction. Finally a control sample of cell free plasma was also used.
To the test samples were added (a) a positive ECF contrast agent (GdDTPA-BMA at a dosage corresponding to 0.2 mmol Gd/kg); (b) a negative ECF contrast agent (DyDTPA-BMA at a dosage corresponding to 0.6 mmol Dy/kg); and (c) a positive ECF contrast agent and a negative ECF contrast agent (GdDTPA-BMA and DyDTPA-BMA at dosages corresponding to 0.2 mmol Gd/kg and 0.6 mmol Dy/kg).
These doped samples, and controls to which no contrast agent was added, were imaged together at ambient temperature in the head coil of a Siemens Magnetom operating at 0.5 T using T1 -weighted (TR/TE 500/30 ms), T2 -weighted (TR/TE 1500/90 ms) and proton density-weighted (TR/TE 1500/30 ms) echo sequences. The signal intensity for each contrast agent doped sample was normalized to the corresponding undoped sample and the results are set forth as ratios in FIGS. 1 to 3 hereto, squares, circles and diamonds representing the ratios for T1 -weighted, PD-weighted and T2 -weighted sequences respectively.

[8] = tested on: infarcted and non-ischemic myocardium; settings: pig, in vivo
Protocol: as §1
The total amount of gadolinium and dysprosium in samples of infarcted and non-ischemic myocardium was quantified by ICP-AES.
Paired t-tests (two-tailed) were used to compare the gadolinium and dysprosium content, respectively, in infarcted and non-ischemic myocardium within the group. […] In addition, the extracellular concentrations of gadolinium and dysprosium were further compared with the content of gadolinium and dysprosium in tissue samples.

Row | Structure (SMILES) | metal content in infarcted region vs normal myocardium [1] | concentration ratio, reperfused infarcted vs normal myocardium [1] | concentration course in dialysate [2] | duration of plateau in dialysate [2] [min] | concentration in dialysate after early peak [2] | distribution in infarcted heart (myocardial infarction) | differential enhancement of reperfused infarction, T1-weighted ([5]; T1-weighted images) | delineation of infarcted region, T2-weighted ([5]; T2-weighted images) | signal intensity of infarcted region, T2-weighted ([5]; T2-weighted images) | signal intensity of normal region, T2-weighted ([5]; T2-weighted images) | T2, infarct [5] [ms] | T2, normal myocardium [5] [ms] | GRE signal intensity, infarct [5] | GRE signal intensity, normal myocardium [5] | T2*, infarct [5] [ms] | T2*, normal myocardium [5] [ms] | SE T1 signal intensity, infarct [5] | SE T1 signal intensity, normal myocardium [5] | SE T2 signal intensity, infarct [5] | SE T2 signal intensity, normal myocardium [5] | other results
1 | CNC(=O)CN(CCN(CCN(CC(=O)[O-])CC(=O)NC)CC(=O)[O-])CC(=O)[O-].[Dy+3] [DyDTPA-BMA] | greater amount of dysprosium in the infarcted zone | approximately 2.5 fold | increased gradually | 60 | diminished with time | allowed essentially only to distribute to the normal tissue resulting in the generation of enhanced contrast between normal and infarcted tissue | significant differential enhancement | delineated by both agents | much less reduction in signal of the infarcted region | great suppression of normal myocardium signal | 35.8 ± 1.0 | 25.9 ± 0.6 | 191 ± 34 | 105 ± 18 | 17.7 ± 1.2 | 9.4 ± 0.5 | 141 ± 14 | 88 ± 7 | 42 ± 4 | 12 ± 1 | infarct detection / conspicuity ([3]; T1- and T2-weighted sequences): improves the infarct detection due to susceptibility-induced loss of signal intensity in nonischemic myocardium; signal effect of accumulation in infarcted myocardium ([3]; infarcted myocardium): does not seem to result in signal loss but maintains a persistent intensity relative to the depleted signal in normal myocardium; effect of negative agent on T1 enhancing effect of positive agent in infarcted area [4]: does not cancel the T1 enhancing effect of the positive agent in the infarcted area; contrast between infarcted and normal region vs both agents ([5]; T2-weighted images): greater contrast between the two regions than was noted when both agents were administered; counteraction of Gd-DTPA-BMA induced signal enhancement by Dy-DTPA-BMA ([6]; all investigated sequences, infarcted tissue): not significantly counteracted; also recorded: did not counteract the Gd-DTPA-BMA induced enhancement of the infarcted tissue; susceptibility induced (Dy induced) signal intensity reduction in infarctions ([6]; infarctions): lack of detectable susceptibility induced (i.e. Dy induced) signal intensity reduction effects in the infarctions; time to plateau concentration in dialysate [7]: 20 to 30 min; time of early peak in dialysate [7]: ≤ 10 min; signal intensity, "viable" sample (Human blood samples; all sequences, most markedly T2-weighted): signal intensity fell with increasing Ht reading; signal intensity, "non-viable" samples (Human blood samples; frozen samples, all sequences): no effect
2 | CNC(=O)CN(CCN(CCN(CC(=O)[O-])CC(=O)NC)CC(=O)[O-])CC(=O)[O-].[Gd+3] [GdDTPA-BMA, reference compound] | commensurably greater content of gadolinium in that region than in normal myocardium | approximately 2.5 fold | increased gradually | 60 | diminished with time | distributed to the infarcted area of the heart | significant differential enhancement | delineated by both agents | significantly reduced compared to hearts with no contrast | not different from that of hearts with no contrast | 31.1 ± 1.2 | 34.7 ± 0.7 | 185 ± 49 | 200 ± 40 | 13.2 ± 1.5 | 17.1 ± 2.2 | 350 ± 34 | 184 ± 21 | 35 ± 7 | 42 ± 4 | distribution / enhancement in 6-hour-old myocardial infarction ([3]; porcine model): infarct accumulation; enhancement of infarcted region, single agent vs both agents ([5]; T1-weighted images): significantly less than that noted when both agents were present; infarction signal / visualization ([6]; T1- and proton density-weighted, vs no contrast agent or Dy-DTPA-BMA only): enhanced infarction signal in the T1- and proton density-weighted sequences, resulting in improved infarction visualization; concentration in infarcted vs non-ischemic myocardium [8]: more than threefold higher concentration; time to plateau concentration in dialysate [7]: 20 to 30 min; time of early peak in dialysate [7]: ≤ 10 min; signal intensity ratio (doped/undoped), T1-weighted (Human blood samples; T1-weighted TR/TE 500/30 ms, 0.5 T): increased signal intensity effect; signal intensity ratio (doped/undoped), other sequences (Human blood samples; T2-weighted (1500/90) and proton density-weighted (1500/30)): barely noticed in the other sequences; discrimination between "viable" and "non-viable" samples (Human blood samples; all sequences): no significant discrimination
